Patent US9416128B2, “Fused heterocyclic compounds as ion channel modulators” (Gilead Sciences, Inc., priority 2013, dated 2016)
Like-named read-outs stand apart in the source and are kept apart here.

Key:
hNaV1.2 (SCN2A) = biological target: T1, hNaV1.2 (SCN2A) (Homo sapiens, UniProt Q99250); experiment: Use-dependent inhibition of the CNS NaV1.2 sodium channel; type: cell-based; conditions: % inhibition; for inhibition at 1 µM / inhibition at 10 µM: HEK-293, 25 Hz; for inhibition at 1 µM: read-out: Nav1.2 UDB 25 Hz 1 uM; for inhibition at 10 µM: read-out: Nav1.2 UDB 25 Hz 10 uM
T1 construct: expressed in transfected cells
Method: HEK-293 cells stably expressing wild-type (WT) hNaV1.2 (SCN2A NCBI # NM_021007.2, SCN1B NCBI # NM_001037.4, SCN2B NCBI # NM_004588.2) were used to record INa. Cells are maintained with standard tissue culture procedures and stable channel expression is maintained with 800 ug/mL G418 and 3 ug/mL Puromycin in the culture medium. Unless otherwise noted, all reagents are purchased from Sigma-Aldrich (St Louis, Mo., U.S.A.).
Assays measuring Use-Dependent Block (UDB) of NaV1.2 are performed on an automated electrophysiology platform, QPatch 16X or QPatch HT (Sophion Bioscience, Copenhagen, Denmark), using the whole cell patch clamp technique to measure currents through the cell membrane. Series resistance compensation is set to 100% and series resistance and whole-cell compensation are performed automatically. Currents stored in the Sophion Bioscience Oracle database (Sophion Bioscience, Copenhagen, Denmark). Analysis is performed using QPatch Assay software and data are compiled in Excel 2010 (Microsoft, Seattle, Wash., U.S.A.). The internal (pipette) solution consists of (in mM) 105 CsF, 10 NaF, 20 CsCl, 2 EGTA, 10 HEPES, 10 Dextrose with a pH of 7.35 and osmolarity of 300 mOsmol/kg. The external (bath) solution contains in (mM): 145 NaCl, 4 KCl, 1.8 CaCl2, 1 MgCl2, 10 dextrose, 10 HEPES, with a pH of 7.35 and osmolarity of 310 mOsmol/kg. Experiments are carried out at 23-25° C.
Compound stocks are routinely made by the Gilead Sample Bank in vials to 10 mM in dimethyl sulfoxide (DMSO). In some cases, when compounds are not soluble in DMSO, they are made in 100% ethanol. Stocks are sonicated as necessary. […]
Cells are allowed to stabilize for 10 min after establishment of the whole-cell configuration before current is measured. The test compound is applied 2 times at 60 second intervals. After the second compound addition, a 200 second wait period was imposed to allow for equilibration. Leak currents are subtracted by using an online P/4 procedure and all currents are low-pass Bessel filtered at 5 kHz and digitized at […].
Results are presented as mean percentage inhibition.
Use-dependent block of NaV1.2 peak current is measured during pulse number 20 of a voltage pulse train (0 mV, 20 ms, 20 pulses, 25 Hz) from a holding potential of −120 mV.
Currents are normalized to the peak current recorded in response to the first pulse in each frequency train. The voltage protocol for UDB was performed in the absence and presence of compound and percentage inhibition was calculated with respect to the compound free condition.
Data analysis is performed using QPatch Assay Software 4.0, and Excel 2002 (Microsoft, Seattle, Wash., U.S.A.).

[1] = biological target: wild-type human cardiac sodium channel, hNaV 1.5 (Peak INa) (Homo sapiens, UniProt Q14524); experiment: Peak INa screening assay (tonic block and use-dependent block); type: cell-based
Method: The assay uses an HEK293 (human embryonic kidney) cell line heterologously expressing the wild-type human cardiac sodium channel, hNaV 1.5, purchased from Millipore (Billerica, Mass.). No beta subunits were coexpressed with the Na channel alpha subunit. Cells are maintained with standard tissue culture procedures and stable channel expression is maintained with 400 μg/mL Geneticin in the culture medium. […] Currents are digitized at 25 kHz and low-pass filtered at 5 kHz and stored in the Sophion Bioscience Oracle database (Sophion Bioscience, Copenhagen, Denmark). Analysis is performed using QPatch Assay software and data are compiled in Excel 2010 (Microsoft, Seattle, Wash., U.S.A.). Compound stocks are routinely made by the Gilead Sample Bank in vials to 10 mM in dimethyl sulfoxide (DMSO). In some cases, when compounds are not soluble in DMSO, they are made in 100% ethanol. Stocks are sonicated as necessary. The extracellular solution for screening Late INa is composed of: 140 mM NaCl, 4 mM KCl, 1.8 mM CaCl2, 1 mM MgCl2, 10 mM HEPES and 10 mM Dextrose with pH adjusted to 7.35 using NaOH. The intracellular solution contains: 105 mM CsF, 20 mM CsCl, 10 NaF, 2 mM EGTA, 10 mM HEPES and 10 mM Dextrose with pH adjusted to 7.35 with CsOH. Compounds are diluted in extracellular solution using a MicroLab Nimbus (Hamilton Robotics, Reno, Nev.) to between 0.3 and 3 μM in glass vials and transferred to glass well plates before robotic addition to the cells. […] It is contemplated that the compounds of Formula I avoid significant block of peak INa. […] The intracellular solution used for the Peak INa assay is the same as outlined for the Late INa assay (see above). After establishing the whole cell recording configuration, channels were stimulated to open with low frequency (0.1 Hz) for so that the recording can be monitored and the extent to which the recording has stabilized can be assessed. The test compound is then applied at 1 or 3 μM was added 2 times at 60 second intervals. After the second compound addition, a 200 second wait period was imposed to allow for equilibration. Voltage protocols for TB and UDB are were performed in the absence and presence of compound and TB and UDB are calculated with respect to the compound free condition. Both TB and UDB were analyzed by incorporating rundown correction for the peak INa.

[2] = % inhibition, use-dependent block of peak INa at 3 uM, 3 Hz, pulse 50, read-out: Nav1.5 Peak UDB 3 Hz 3 uM
[3] = read-out: Nav1.5 Peak TB 3 uM, % inhibition, tonic block of peak INa at 3 uM, 0.1 Hz, holding -100 mV

T1 sequence (Q99250 whole entry): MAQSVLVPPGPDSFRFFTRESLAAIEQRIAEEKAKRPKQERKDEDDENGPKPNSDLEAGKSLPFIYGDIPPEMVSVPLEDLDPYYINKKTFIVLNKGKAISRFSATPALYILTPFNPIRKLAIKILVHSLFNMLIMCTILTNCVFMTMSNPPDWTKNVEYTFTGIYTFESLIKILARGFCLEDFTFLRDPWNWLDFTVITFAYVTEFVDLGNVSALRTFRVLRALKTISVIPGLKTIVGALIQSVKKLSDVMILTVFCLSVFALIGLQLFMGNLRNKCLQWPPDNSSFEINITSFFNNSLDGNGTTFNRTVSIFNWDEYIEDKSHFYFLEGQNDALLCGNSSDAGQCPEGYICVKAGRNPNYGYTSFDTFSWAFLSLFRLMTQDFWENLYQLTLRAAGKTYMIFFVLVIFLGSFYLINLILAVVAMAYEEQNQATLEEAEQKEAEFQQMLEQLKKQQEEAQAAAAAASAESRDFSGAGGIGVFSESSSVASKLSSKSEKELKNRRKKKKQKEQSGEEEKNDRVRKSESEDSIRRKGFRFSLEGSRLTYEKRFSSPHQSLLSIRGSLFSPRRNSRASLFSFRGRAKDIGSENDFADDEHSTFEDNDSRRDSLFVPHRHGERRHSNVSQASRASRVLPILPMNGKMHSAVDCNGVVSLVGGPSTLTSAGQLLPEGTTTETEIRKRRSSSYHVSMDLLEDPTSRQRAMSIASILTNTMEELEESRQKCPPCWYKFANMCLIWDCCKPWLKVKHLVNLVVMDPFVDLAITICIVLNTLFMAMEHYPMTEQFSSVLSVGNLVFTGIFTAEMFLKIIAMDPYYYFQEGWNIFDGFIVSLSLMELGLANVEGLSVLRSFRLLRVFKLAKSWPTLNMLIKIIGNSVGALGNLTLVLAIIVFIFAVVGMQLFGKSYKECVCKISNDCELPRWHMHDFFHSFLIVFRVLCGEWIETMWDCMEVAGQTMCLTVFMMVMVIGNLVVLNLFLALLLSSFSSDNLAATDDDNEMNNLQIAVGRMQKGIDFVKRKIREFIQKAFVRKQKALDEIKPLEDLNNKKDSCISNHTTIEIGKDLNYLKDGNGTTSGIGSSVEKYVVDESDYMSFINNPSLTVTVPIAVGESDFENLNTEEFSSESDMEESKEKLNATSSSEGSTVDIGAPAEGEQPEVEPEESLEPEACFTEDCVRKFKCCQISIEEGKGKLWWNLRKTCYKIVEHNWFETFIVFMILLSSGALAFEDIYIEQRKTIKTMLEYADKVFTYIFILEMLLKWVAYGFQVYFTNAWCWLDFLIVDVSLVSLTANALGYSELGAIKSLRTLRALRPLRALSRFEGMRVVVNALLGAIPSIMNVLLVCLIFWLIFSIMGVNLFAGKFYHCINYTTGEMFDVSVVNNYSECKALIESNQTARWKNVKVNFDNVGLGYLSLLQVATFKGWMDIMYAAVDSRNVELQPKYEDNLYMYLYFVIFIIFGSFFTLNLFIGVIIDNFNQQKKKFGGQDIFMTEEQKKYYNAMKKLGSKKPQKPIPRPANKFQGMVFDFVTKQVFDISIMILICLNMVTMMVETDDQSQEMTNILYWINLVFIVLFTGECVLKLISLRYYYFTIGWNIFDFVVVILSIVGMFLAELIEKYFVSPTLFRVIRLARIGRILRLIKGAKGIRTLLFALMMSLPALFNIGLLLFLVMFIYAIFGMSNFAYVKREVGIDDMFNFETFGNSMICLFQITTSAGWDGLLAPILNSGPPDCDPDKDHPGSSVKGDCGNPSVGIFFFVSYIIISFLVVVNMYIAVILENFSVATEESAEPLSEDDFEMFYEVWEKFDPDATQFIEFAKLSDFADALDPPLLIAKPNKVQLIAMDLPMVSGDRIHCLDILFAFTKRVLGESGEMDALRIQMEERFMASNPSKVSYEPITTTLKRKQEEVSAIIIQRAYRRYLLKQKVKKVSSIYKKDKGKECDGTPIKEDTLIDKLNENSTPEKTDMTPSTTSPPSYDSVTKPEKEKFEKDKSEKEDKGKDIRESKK
T1 sequence (Q07699 19-218 partner): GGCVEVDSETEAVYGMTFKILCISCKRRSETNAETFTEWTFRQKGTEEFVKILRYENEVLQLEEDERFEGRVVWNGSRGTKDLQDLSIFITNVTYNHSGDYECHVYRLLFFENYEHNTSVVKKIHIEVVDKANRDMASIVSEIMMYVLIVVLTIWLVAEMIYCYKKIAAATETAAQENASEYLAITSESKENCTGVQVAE
T1 sequence (O60939 30-215 partner): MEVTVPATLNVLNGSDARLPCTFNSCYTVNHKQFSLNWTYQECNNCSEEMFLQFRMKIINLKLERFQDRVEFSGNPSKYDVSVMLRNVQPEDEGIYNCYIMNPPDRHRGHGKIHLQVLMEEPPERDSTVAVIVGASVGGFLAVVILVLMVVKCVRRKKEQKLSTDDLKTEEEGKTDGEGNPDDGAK
Chain of wild-type human cardiac sodium channel, hNaV 1.5 (Peak INa) (Q14524 whole entry): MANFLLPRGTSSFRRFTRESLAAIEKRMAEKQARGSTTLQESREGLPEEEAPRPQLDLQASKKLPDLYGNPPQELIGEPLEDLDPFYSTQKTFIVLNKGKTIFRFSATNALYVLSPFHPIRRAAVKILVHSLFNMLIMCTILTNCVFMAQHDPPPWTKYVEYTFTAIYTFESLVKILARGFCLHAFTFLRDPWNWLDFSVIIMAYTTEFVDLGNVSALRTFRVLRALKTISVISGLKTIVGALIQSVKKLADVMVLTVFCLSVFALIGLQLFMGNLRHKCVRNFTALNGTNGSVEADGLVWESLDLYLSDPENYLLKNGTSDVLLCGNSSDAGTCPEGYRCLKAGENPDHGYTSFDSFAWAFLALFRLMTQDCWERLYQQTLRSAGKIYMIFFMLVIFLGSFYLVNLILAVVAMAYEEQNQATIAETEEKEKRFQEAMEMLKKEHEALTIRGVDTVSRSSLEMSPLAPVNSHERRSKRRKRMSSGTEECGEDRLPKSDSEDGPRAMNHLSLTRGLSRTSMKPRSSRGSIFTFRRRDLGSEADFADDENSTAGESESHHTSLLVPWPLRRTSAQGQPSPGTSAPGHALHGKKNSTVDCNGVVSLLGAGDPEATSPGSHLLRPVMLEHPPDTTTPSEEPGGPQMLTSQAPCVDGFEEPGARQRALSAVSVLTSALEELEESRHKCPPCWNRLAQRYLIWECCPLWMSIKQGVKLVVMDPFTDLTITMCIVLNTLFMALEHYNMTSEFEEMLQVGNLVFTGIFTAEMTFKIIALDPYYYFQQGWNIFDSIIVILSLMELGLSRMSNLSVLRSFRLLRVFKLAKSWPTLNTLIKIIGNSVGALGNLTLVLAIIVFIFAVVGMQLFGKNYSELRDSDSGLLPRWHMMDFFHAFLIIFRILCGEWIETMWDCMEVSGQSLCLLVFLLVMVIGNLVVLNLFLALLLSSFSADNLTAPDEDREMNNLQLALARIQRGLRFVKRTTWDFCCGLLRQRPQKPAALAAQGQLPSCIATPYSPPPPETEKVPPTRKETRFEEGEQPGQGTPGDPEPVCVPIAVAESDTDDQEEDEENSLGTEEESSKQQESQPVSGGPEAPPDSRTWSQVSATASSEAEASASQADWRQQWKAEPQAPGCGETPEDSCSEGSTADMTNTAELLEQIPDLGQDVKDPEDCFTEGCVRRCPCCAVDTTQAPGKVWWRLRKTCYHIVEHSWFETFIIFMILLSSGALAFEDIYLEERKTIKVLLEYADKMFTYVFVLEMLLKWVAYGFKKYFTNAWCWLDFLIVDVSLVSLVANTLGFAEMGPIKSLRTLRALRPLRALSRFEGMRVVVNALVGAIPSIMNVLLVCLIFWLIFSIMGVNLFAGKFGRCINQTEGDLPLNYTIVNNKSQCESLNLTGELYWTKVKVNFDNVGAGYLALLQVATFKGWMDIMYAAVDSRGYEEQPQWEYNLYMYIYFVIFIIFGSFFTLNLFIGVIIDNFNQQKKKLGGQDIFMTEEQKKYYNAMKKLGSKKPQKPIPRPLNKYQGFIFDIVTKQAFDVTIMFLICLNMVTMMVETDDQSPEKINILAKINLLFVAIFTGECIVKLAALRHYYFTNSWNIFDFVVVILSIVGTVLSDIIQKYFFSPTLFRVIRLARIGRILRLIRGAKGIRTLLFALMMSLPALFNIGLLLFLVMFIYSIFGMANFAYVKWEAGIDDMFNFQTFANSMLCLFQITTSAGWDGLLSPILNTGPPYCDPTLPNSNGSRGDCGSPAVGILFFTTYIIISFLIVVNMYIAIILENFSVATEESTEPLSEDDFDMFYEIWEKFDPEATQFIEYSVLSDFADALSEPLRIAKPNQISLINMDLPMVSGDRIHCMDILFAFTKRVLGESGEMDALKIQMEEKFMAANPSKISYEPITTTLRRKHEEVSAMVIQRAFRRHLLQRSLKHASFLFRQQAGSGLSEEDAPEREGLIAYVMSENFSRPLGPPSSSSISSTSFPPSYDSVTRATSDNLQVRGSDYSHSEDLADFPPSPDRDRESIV

Row | Structure (SMILES) | inhibition at 1 µM (hNaV1.2 (SCN2A); use-dependent block at 1 uM) [%] | inhibition at 10 µM (hNaV1.2 (SCN2A); use-dependent block at 10 uM) [%] | inhibition at 3 µM [1, 2] [%] | inhibition at 3 µM [1, 3] [%] | Nav1.2 UDB 25 Hz 1 uM (hNaV1.2 (SCN2A); use-dependent block at 1 uM) [%] | Nav1.2 UDB 25 Hz 10 uM (hNaV1.2 (SCN2A); use-dependent block at 10 uM) [%]
1 | COc1cc(OC(F)(F)F)ccc1-c1ccc2c(c1)CN(Cc1nc(C)cs1)C(=O)O2 [Example 58, 6-(2-methoxy-4-(trifluoromethoxy)phenyl)-3-((4-methylthiazol-2-yl)methyl)-3,4-dihydro-2H-benzo[e][1,3]oxazin-2-one] | 10.6 | 58.7 | < 5 | 7.9 |  | 
2 | Cc1csc(CN2Cc3cc(-c4ccc(OC(F)(F)F)cc4Cl)ccc3OC2=O)n1 [Example 57, 6-(2-chloro-4-(trifluoromethoxy)phenyl)-3-((4-methylthiazol-2-yl)methyl)-3,4-dihydro-2H-benzo[e][1,3]oxazin-2-one] | 12.8 | 61.5 | < 5 |  |  | 
3 | Cc1csc(CN2Cc3cc(-c4ccc(Cl)c(F)c4)ccc3OC2=O)n1 [Example 59, 6-(4-chloro-3-fluorophenyl)-3-((4-methylthiazol-2-yl)methyl)-3,4-dihydro-2H-benzo[e][1,3]oxazin-2-one] | < 5 | 41.2 | < 5 | 13 |  | 
4 | Cc1cnc(CN2Cc3cc(-c4ccc(OC(F)(F)F)cc4)ccc3OC2=O)nc1 [Example 12, 3-((5-methylpyrimidin-2-yl)methyl)-6-(4-(trifluoromethoxy)phenyl)-3,4-dihydro-2H-benzo[e][1,3]oxazin-2-one] | 15.4 | 68.8 | < 5 | 16.6 |  | 
5 | Cc1cnc(CN2Cc3cc(-c4ccc(C(F)(F)F)cc4)ccc3OC2=O)nc1 [Example 13, 3-((5-methylpyrimidin-2-yl)methyl)-6-(4-(trifluoromethyl)phenyl)-3,4-dihydro-2H-benzo[e][1,3]oxazin-2-one] | 21.4 | 63.4 | 5.6 | 29.4 |  | 
6 | CC1c2cc(-c3ccc(Cl)c(F)c3)ccc2OC(=O)N1Cc1ncccn1 (stereo not drawn) [Example 11, 6-(4-chloro-3-fluorophenyl)-4-methyl-3-(pyrimidin-2-ylmethyl)-3,4-dihydro-2H-benzo[e][1,3]oxazin-2-one] | 29.9 | 77.2 | 5.6 | 19.4 |  | 
7 | COc1cc(OC(F)(F)F)ccc1-c1ccc2c(c1)CN(Cc1ncccn1)C(=O)O2 [Example 1, 6-(2-methoxy-4-(trifluoromethoxy)phenyl)-3-(pyrimidin-2-ylmethyl)-3,4-dihydro-2H-benzo[e][1,3]oxazin-2-one] |  |  | 9.6 | 26.7 | 7.9 | 37.0
8 | COc1cc(OC(F)(F)F)ccc1-c1ccc2c(c1)CN(CCc1ncccn1)C(=O)O2 [Example 18, 6-(2-methoxy-4-(trifluoromethoxy)phenyl)-3-(2-(pyrimidin-2-yl)ethyl)-3,4-dihydro-2H-benzo[e][1,3]oxazin-2-one] | 9.1 | 54.9 | < 5 | 12.1 |  | 
9 | Cc1cc(OC(F)(F)F)ccc1-c1ccc2c(c1)CN(Cc1ccccn1)C(=O)O2 [Example 23, 6-(2-methyl-4-(trifluoromethoxy)phenyl)-3-(pyridin-2-ylmethyl)-3,4-dihydro-2H-benzo[e][1,3]oxazin-2-one] | < 5 | 56 | < 5 | 19.4 |  | 
10 | Cc1cnc(CN2Cc3cc(-c4ccc(C(F)(F)F)cc4F)ccc3OC2=O)nc1 [Example 41, 6-(2-fluoro-4-(trifluoromethyl)phenyl)-3-((5-methylpyrimidin-2-yl)methyl)-3,4-dihydro-2H-benzo[e][1,3]oxazin-2-one] | 7.1 | 36.2 | < 5 | 17.5 |  | 
11 | O=C1Oc2ccc(-c3ccc(C4(C(F)(F)F)CC4)cc3)cc2CN1Cc1ncccn1 [Example 38, 3-(pyrimidin-2-ylmethyl)-6-(4-(1-(trifluoromethyl)cyclopropyl)phenyl)-3,4-dihydro-2H-benzo[e][1,3]oxazin-2-one] | 34.1 | 71.8 | < 5 | 55.6 |  | 
12 | Cc1csc(CN2Cc3cc(-c4ccc(OC(F)(F)F)cc4F)ccc3OC2=O)n1 [Example 55, 6-(2-fluoro-4-(trifluoromethoxy)phenyl)-3-((4-methylthiazol-2-yl)methyl)-3,4-dihydro-2H-benzo[e][1,3]oxazin-2-one] | 22.6 | 61.8 | < 5 | 16.1 |  | 
13 | CCOc1cc(OC(F)(F)F)ccc1-c1ccc2c(c1)CN(Cc1ncccn1)C(=O)O2 [Example 40, 6-(2-ethoxy-4-(trifluoromethoxy)phenyl)-3-(pyrimidin-2-ylmethyl)-3,4-dihydro-2H-benzo[e][1,3]oxazin-2-one] | 16.7 | 62.5 | 10.2 | 22.4 |  | 
14 | O=C1Oc2ccc(-c3ccc(C(F)(F)F)cc3)cc2CN1Cc1ccccn1 [Example 24, 3-(pyridin-2-ylmethyl)-6-(4-(trifluoromethyl)phenyl)-3,4-dihydro-2H-benzo[e][1,3]oxazin-2-one] | 32.7 | 71.4 | 5.9 | 28.5 |  | 
15 | Cc1cccc(CN2Cc3cc(-c4ccc(OC(F)(F)F)cc4F)ccc3OC2=O)n1 [Example 47, 6-(2-fluoro-4-(trifluoromethoxy)phenyl)-3-((6-methylpyridin-2-yl)methyl)-3,4-dihydro-2H-benzo[e][1,3]oxazin-2-one] | 14.1 | 55.6 | < 5 | 44.3 |  | 
16 | O=C1Oc2ccc(-c3ccc(OC(F)(F)F)cc3)cc2CN1Cc1ccccn1 [Example 20, 3-(pyridin-2-ylmethyl)-6-(4-(trifluoromethoxy)phenyl)-3,4-dihydro-2H-benzo[e][1,3]oxazin-2-one] | 30.2 | 69.8 | 5.1 | 32.8 |  | 
